Measured values reported in patent US20200216416A1, “QUINOLINE COMPOUNDS AS INHIBITORS OF TAM AND MET KINASES” (Array BioPharma Inc., priority 2019, published 2020).

Legend:
[1] = target: T1, His-tagged recombinant human MER cytoplasmic domain (Homo sapiens, UniProt Q12866); assay: MER Enzyme Assay (LanthaScreen Eu Kinase Binding); conditions: averaged IC50; MER 5 nM; 60-minute incubation at 22° C.; TR-FRET
T1 construct: His-tagged recombinant human MER cytoplasmic domain
T1 sequence (Q12866 527-999 limits assumed): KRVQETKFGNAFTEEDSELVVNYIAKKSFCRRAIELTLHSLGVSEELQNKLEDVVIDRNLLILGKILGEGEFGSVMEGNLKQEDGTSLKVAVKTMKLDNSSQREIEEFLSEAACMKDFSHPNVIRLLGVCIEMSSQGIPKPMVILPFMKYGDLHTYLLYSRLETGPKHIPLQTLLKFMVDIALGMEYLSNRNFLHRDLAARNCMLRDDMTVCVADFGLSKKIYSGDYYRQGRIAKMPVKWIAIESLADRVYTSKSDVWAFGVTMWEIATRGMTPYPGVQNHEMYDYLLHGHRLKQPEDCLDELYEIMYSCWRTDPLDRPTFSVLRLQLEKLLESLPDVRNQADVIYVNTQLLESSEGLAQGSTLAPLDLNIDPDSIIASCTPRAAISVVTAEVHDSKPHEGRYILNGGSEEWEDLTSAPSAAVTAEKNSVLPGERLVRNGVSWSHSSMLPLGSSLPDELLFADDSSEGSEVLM
Experimental: Compounds disclosed herein were screened for their ability to inhibit […] kinase using Invitrogen's LanthaScreen™Eu Kinase Binding technology. His-tagged recombinant human MER cytoplasmic domain (5 nM) was incubated with 20 nM Alexa-Fluor® Tracer 236 (PR9078A), 2 nM biotinylated anti-His (Cat. No. M4408), and 2 nM europium-labeled Streptavidin (Cat. No. PV5899) along with test compound in a buffer consisting of 25 mM HEPES, pH 7.4, 10 mM MgCl 2, 0.01% Triton X-100, and 2% DMSO. Compounds were typically prepared in a threefold serial dilution in DMSO and added to the assay to give the appropriate final concentration. After a 60-minute incubation at 22° C., the reaction was measured using a PerkinElmer EnVision multimode plate reader via TR-FRET dual wavelength detection, and the percent of control (POC) was calculated using a ratiometric emission factor. […] The POC values are fit to a 4 parameter logistic curve and the IC50 value is point where the curve crosses 50 POC.

human MET kinase L1195V = target: T2, human MET kinase L1195V (Homo sapiens, UniProt P08581, L1195V); assay: c-Met Enzyme Assay, L1195V mutant; assay type: binding; conditions: averaged IC50; L1195V 10 nM; 60-minute incubation at 22° C.
T2 construct: GST-tagged recombinant human MET kinase domain; purchased Signal Chem
T2 sequence (P08581 1078-1345 L1195V limits assumed): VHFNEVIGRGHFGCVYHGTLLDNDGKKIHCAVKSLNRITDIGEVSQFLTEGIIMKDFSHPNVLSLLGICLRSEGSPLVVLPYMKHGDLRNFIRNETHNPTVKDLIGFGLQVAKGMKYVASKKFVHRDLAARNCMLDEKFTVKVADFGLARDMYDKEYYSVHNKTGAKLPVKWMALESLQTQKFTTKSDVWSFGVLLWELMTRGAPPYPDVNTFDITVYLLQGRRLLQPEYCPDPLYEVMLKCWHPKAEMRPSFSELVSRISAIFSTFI
Experimental: (§1) The affinity of compound binding to wild type and mutant human MET kinases was measured using Invitrogen's LanthaScreen™ Eu Kinase Binding technology. Briefly, GST-tagged recombinant human MET kinase domain from Signal Chem (see Table 8 below for concentration in assay) was incubated with 50 nM Alexa-Fluor® Tracer 236 (Invitrogen Cat No. PR9078A) and 2 nM Europium-anti-GST (Invitrogen Cat. No. A15116) along with test compound in a buffer consisting of 25 mM HEPES, pH 7.4, 10 mM MgCl2, 0.01% Triton X-100, 1mM DTT, and 2% DMSO. Compounds were typically prepared in a three-fold serial dilution in DMSO and added to the assay to give the appropriate final concentration. After a 60-minute incubation at 22° C., the reaction was measured using a PerkinElmer EnVision multimode plate reader via TR-FRET dual wavelength detection, and the percent of control (POC) calculated using a ratiometric emission factor. […] The POC values were fit to a 4 parameter logistic curve and the IC50 value is point where the curve crosses 50 POC.

human MET kinase Y1230H = target: T3, human MET kinase Y1230H (Homo sapiens, UniProt P08581, Y1230H); assay: c-Met Enzyme Assay, Y1230H mutant; assay type: binding; conditions: averaged IC50; Y1230H 5 nM; 60-minute incubation at 22° C.; read-out: Y1230 H IC50
T3 construct: GST-tagged recombinant human MET kinase domain; purchased Signal Chem
T3 sequence (P08581 1078-1345 Y1230H): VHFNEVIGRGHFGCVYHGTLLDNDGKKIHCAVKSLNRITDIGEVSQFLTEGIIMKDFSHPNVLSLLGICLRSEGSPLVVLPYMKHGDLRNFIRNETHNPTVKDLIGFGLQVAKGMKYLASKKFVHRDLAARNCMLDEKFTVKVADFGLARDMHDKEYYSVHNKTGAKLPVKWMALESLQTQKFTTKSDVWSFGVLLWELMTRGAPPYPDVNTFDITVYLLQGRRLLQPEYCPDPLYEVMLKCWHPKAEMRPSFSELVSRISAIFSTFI
Experimental: as §1

human MET kinase D1228N = target: T4, human MET kinase D1228N (Homo sapiens, UniProt P08581, D1228N); assay: c-Met Enzyme Assay, D1228N mutant; assay type: binding; conditions: averaged IC50; D1228N 2 nM; 60-minute incubation at 22° C.; read-out: D1228 N IC50
T4 construct: GST-tagged recombinant human MET kinase domain; purchased Signal Chem
T4 sequence (P08581 1078-1345 D1228N): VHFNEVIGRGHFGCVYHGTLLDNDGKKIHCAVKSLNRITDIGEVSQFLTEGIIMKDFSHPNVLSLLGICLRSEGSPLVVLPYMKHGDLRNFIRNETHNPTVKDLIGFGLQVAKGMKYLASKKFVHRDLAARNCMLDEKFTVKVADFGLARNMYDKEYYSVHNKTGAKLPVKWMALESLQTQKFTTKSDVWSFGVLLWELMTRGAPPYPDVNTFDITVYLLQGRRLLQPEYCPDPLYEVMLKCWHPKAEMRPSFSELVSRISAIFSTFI
Experimental: as §1

Structure (SMILES)	IC50 [1] [nM]	IC50 (human MET kinase L1195V) [nM]	IC50 (human MET kinase Y1230H) [nM]	IC50 (human MET kinase D1228N) [nM]
CCCC(CCC)n1cc(C(=O)Nc2ccc(Oc3ccnc4cc(OC)c(OC)cc34)cn2)c(=O)c(-c2ccc(F)cc2F)c1 [Example 17, 5-(2,4-difluorophenyl)-N-(5-((6,7-dimethoxyquinolin-4yl)oxy)pyridin-2-yl)-1-(heptan-4-yl)-4-oxo-1,4-dihydropyridine-3-carboxamide]	52	82.6	26.9	25
COc1cc2nccc(Oc3ccc(NC(=O)c4cn(C(C)C)cc(-c5ccc(F)cc5Cl)c4=O)nc3)c2cc1OC [Example 18, 5-(2-chloro-4-fluorophenyl)-N-(5-((6,7-dimethoxyquinolin-4-yl)oxy)pyridin-2-yl)-1-isopropyl-4-oxo-1,4-dihydropyridine-3-carboxamide]	2	21.4	4.6	4.7
COc1cc2nccc(Oc3ccc(NC(=O)c4cn(C(C)C)cc(-c5ccc(F)cc5C)c4=O)nc3)c2cc1OC [Example 19, N-(5-((6,7-dimethoxyquinolin-4yl)oxy)pyridin-2-yl)-5-(4-fluoro-2-methylphenyl)-1-isopropyl-4-oxo-1,4-dihydropyridine-3-carboxamide]	2	10	2.7	3.6
COc1cc(-c2cn(C(C)C)cc(C(=O)Nc3ccc(Oc4ccnc5cc(OC)c(OC)cc45)cn3)c2=O)ccc1F [Example 20, N-(5-((6,7-dimethoxyquinolin-4yl)oxy)pyridin-2-yl)-5-(4-fluoro-3-methoxyphenyl)-1-isopropyl-4-oxo-1,4-dihydropyridine-3-carboxamide]	3	58.1	9.9	10.4
COc1cc2nccc(Oc3ccc(NC(=O)c4cn(C(C)C)cc(-c5ccc(F)c(Cl)c5)c4=O)nc3)c2cc1OC [Example 21, 5-(3-chloro-4-fluorophenyl)-N-(5-((6,7-dimethoxyquinolin-4-yl)oxy)pyridin-2-yl)-1-isopropyl-4-oxo-1,4-dihydropyridine-3-carboxamide]	10	77.7	51.3	31
CNC(=O)Cn1cc(C(=O)Nc2ccc(Oc3ccnc4cc(OC)c(OC)cc34)cn2)c(=O)c(-c2ccc(F)cc2)c1 [Example 22]	3	17.7	4.3	6.5
COc1cc2nccc(Oc3ccc(NC(=O)c4cn(CC(=O)N(C)C)cc(-c5ccc(F)cc5)c4=O)nc3)c2cc1OC [Example 23, N-(5-((6,7-dimethoxyquinolin-4yl)oxy)pyridin-2-yl)-1-(2-(dimethylamino)-2-oxoethyl)-5-(4-fluorophenyl)-4-oxo-1,4-dihydropyridine-3-carboxamide]	3	39.6	7.8	13.5
COc1cc2nccc(Oc3ccc(NC(=O)c4cn(CC(=O)N(C)C)cc(-c5ccc(F)c(F)c5)c4=O)nc3)c2cc1OC [Example 24, 5-(3,4-difluorophenyl)-N-(5-((6,7-dimethoxyquinolin-4-yl)oxy)pyridin-2-yl)-1-(2-(dimethylamino)-2-oxoethyl)-4-oxo-1,4-dihydropyridine-3-carboxamide]	5	92	22.7	36.7
COc1cc2nccc(Oc3ccc(NC(=O)c4cn(CC(=O)N(C)C)cc(-c5ccc(Cl)cc5)c4=O)nc3)c2cc1OC [Example 25]	5	18.7	21.2	37.8
COc1cc2nccc(Oc3ccc(NC(=O)c4cn(C(C)C)c(C)c(-c5ccc(F)cc5)c4=O)nc3)c2cc1OC [Example 27, N-(5-((6,7-dimethoxyquinolin-4yl)oxy)pyridin-2-yl)-5-(4-fluorophenyl)-1-isopropyl-6-methyl-4-oxo-1,4-dihydropyridine-3-carboxamide]	2	2.9	2.3	2
COc1cc2nccc(Oc3ccc(NC(=O)c4cn(C(C)C)c(C)c(-c5ccc(F)c(F)c5)c4=O)nc3)c2cc1OC [Example 28, 5-(3,4-difluorophenyl)-N-(5-((6,7-dimethoxyquinolin-4yl)oxy)pyridin-2-yl)-1-isopropyl-6-methyl-4-oxo-1,4-dihydropyridine-3-carboxamide]	3	4	7.8	3.6
CCc1c(-c2ccc(F)cc2)c(=O)c(C(=O)Nc2ccc(Oc3ccnc4cc(OC)c(OC)cc34)cn2)cn1C(C)C [Example 29, N-(5-((6,7-dimethoxyquinolin-4yl)oxy)pyridin-2-yl)-6-ethyl-5-(4-fluorophenyl)-1-isopropyl-4-oxo-1,4-dihydropyridine-3-carboxamide]	3	5.1	4.2	3.1
COc1ccc(-c2cn(C(C)C)cc(C(=O)Nc3ccc(Oc4ccnc5cc(OC)c(OC)cc45)cn3)c2=O)cc1 [Example 30, N-(5-((6,7-dimethoxyquinolin-4yl)oxy)pyridin-2-yl)-1-isopropyl-5-(4-methoxyphenyl)-4-oxo-1,4-dihydropyridine-3-carboxamide]	5	39.9	103	100
COc1ccc(-c2cn(C(C)C)cc(C(=O)Nc3ccc(Oc4ccnc5cc(OC)c(OC)cc45)cn3)c2=O)c(F)c1 [Example 31, N-(5-((6,7-dimethoxyquinolin-4yl)oxy)pyridin-2-yl)-5-(2-fluoro-4-methoxyphenyl)-1-isopropyl-4-oxo-1,4-dihydropyridine-3-carboxamide]	5	59.1	98.2	62.7
COc1cc2nccc(Oc3ccc(NC(=O)c4cn(C(C)C)cc(-c5ccc(F)cc5OC)c4=O)nc3)c2cc1OC [Example 32, N-(5-((6,7-dimethoxyquinolin-4yl)oxy)pyridin-2-yl)-5-(4-fluoro-2-methoxyphenyl)-1-isopropyl-4-oxo-1,4-dihydropyridine-3-carboxamide]	3	44.8	12.1	17.4
COc1ccc2nccc(Oc3ccc(NC(=O)c4cn(C(C)C)c(C)c(-c5ccc(F)cc5)c4=O)nc3)c2c1 [Example 33, 5-(4-fluorophenyl)-1-isopropyl-N-(5-((6-methoxyquinolin-4-yl)oxy)pyridin-2-yl)-6-methyl-4-oxo-1,4-dihydropyridine-3-carboxamide]	5	20.2	11.2	13.3
COc1cc2nccc(Oc3ccc(NC(=O)c4cn(CCC(C)C)cc(-c5ccc(F)cc5)c4=O)nc3)c2cc1OC [Example 34, N-(5-((6,7-dimethoxyquinolin-4yl)oxy)pyridin-2-yl)-5-(4-fluorophenyl)-1-isopentyl-4-oxo-1,4-dihydropyridine-3-carboxamide]	9	11.2	5.9	7.2
COc1cc2nccc(Oc3ccc(NC(=O)c4cn(CCC(C)C)cc(-c5ccc(F)c(F)c5)c4=O)nc3)c2cc1OC [Example 35, 5-(3,4-difluorophenyl)-N-(5-((6,7-dimethoxyquinolin-4yl)oxy)pyridin-2-yl)-1-isopentyl-4-oxo-1,4-dihydropyridine-3-carboxamide]	15	34.3	18.3	16.2
